For assay [1], the target named is T1, Recombinant STAT3 protein (STAT3 (G127-I722)) (Homo sapiens, UniProt P40763).
T1 construct: Recombinant STAT3 protein (STAT3 (G127-I722))
Put plainly: STAT3 Fluorescence Polarization (FP) Assay. In kind it is binding. Conditions: probe 5-FAM-GpYLPQTV-NH2 2 nM, 45-minute incubation. The gist of the method:
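In this competition FP format, STAT3 residues G127-I722 (25 nM) and 2 nM 5-FAM-GpYLPQTV-NH2 met test compounds for 45 min at room temperature. IC50 values result from fitting mP signal against log concentration by nonlinear regression.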

The target of assay [2] is T2, Recombinant STAT6 protein (STAT6 (W123-T658)) (Homo sapiens, UniProt P42226).
T2 construct: Recombinant STAT6 protein (STAT6 (W123-T658))
T2 sequence (P42226 123-658): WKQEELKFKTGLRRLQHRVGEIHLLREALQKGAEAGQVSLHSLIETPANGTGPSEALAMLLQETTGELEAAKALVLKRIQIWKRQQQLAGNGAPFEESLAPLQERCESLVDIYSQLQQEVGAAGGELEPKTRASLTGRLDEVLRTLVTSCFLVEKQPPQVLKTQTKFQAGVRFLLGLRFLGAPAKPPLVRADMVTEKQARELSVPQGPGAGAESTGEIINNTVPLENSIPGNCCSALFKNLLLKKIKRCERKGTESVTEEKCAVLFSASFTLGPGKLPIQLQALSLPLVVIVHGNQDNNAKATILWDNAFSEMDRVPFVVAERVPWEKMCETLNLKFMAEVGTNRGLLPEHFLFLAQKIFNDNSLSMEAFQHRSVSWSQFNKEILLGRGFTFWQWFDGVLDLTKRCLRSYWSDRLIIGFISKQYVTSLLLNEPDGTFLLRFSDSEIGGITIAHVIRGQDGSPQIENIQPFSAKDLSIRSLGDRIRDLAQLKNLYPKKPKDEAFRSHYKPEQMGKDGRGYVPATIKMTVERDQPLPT
Put plainly: STAT6 Fluorescence Polarization (FP) Assay. In kind it is binding. The settings on record: probe 5-FAM-Ap[…]-NH2 2 nM, 45-minute incubation. The gist of the method: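 Probe displacement format: serially diluted compounds incubated 45 min at room temperature with 2 nM fluorescent phosphopeptide and 250 nM STAT6 (W123-T658) in pH 7.4 HEPES buffer, 1% DMSO final. Polarization signal plotted against log concentration, IC50 fitted by nonlinear regression.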

Setting [3] is: STAT3 (G127-I722) 25 nM, read-out: STAT3 (FP assay IC50 class).
Where [4] appears, read: STAT6 (W123-T658) 250 nM, read-out: STAT6 (FP assay IC50 class).
Where [5] appears, read: STAT3 25 nM, read-out: STAT3 (FP assay IC50).
Where [6] appears, read: STAT6 250 nM, read-out: STAT6 (FP assay IC50).

Like-named read-outs stand apart in the source and are kept apart here.

T1 sequence (P40763 127-722): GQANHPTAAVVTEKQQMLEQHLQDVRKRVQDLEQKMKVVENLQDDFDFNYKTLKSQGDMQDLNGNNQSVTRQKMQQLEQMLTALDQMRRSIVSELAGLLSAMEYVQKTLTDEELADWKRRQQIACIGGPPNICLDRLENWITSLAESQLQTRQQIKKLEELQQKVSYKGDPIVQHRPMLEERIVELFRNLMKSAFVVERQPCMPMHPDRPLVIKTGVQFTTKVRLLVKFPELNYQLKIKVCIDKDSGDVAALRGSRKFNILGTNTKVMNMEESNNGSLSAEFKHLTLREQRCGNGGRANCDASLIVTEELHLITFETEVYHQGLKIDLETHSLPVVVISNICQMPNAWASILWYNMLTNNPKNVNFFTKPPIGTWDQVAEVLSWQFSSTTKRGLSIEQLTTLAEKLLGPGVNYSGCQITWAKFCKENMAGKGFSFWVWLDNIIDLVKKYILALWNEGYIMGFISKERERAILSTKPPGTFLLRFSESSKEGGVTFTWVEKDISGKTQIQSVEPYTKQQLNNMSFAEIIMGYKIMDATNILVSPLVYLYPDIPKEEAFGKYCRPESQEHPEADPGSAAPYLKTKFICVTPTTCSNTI

`COC1CN(c2ccncc2C2CN(C(=O)[C@@H]3CC[C@@H]4C[C@H](C)C[C@H](NC(=O)c5cc6cc(CP(=O)(O)O)ccc6s5)C(=O)N43)C2)C1` [Compound 933, ((2-(((3S,6S,8R,9aR)-3-(3-(4-(3-methoxyazetidin-1-yl)pyridin-3-yl)azetidine-1-carbonyl)-8-methyl-5-oxooctahydro-1H-pyrrolo[1,2-a]azepin-6-yl)carbamoyl)benzo [b]thiophen-5-yl)methyl) phosphonic acid]: the IC50 is under 100 nM in assay [1] (setting [3]) and 3000 to 30000 nM in assay [2] (setting [4]).
For `O=C(N[C@H]1CCC[C@H]2CC[C@@H](C(=O)N3CC(c4cc(F)ccn4)C3)N2C1=O)c1cc2cc(CP(=O)(O)O)ccc2s1` [Compound 541, ((2-(((3S,6S,9aS)-3-(3-(4-fluoropyridin-2-yl)azetidine-1-carbonyl)-5-oxooctahydro-1H-pyrrolo[1,2-a]azepin-6-yl)carbamoyl)benzo[b]thiophen-5-yl)methyl)phosphonic acid] the same measures were 1000 to 10000 nM and 3000 to 30000 nM.
With `O=C(N[C@H]1CCC[C@H]2CC[C@@H](C(=O)N3CC(c4cncnc4O)C3)N2C1=O)c1cc2cc(CP(=O)(O)O)ccc2s1` [Compound 605, ((2-(((3S,6S,9aS)-3-(3-(4-hydroxypyrimidin-5-yl)azetidine-1-carbonyl)-5-oxooctahydro-1H-pyrrolo[1,2-a]azepin-6-yl)carbamoyl)benzo [b]thiophen-5-yl)methyl) phosphonic acid], the figures for the IC50 in assay [1] (setting [3]) and in assay [2] (setting [4]) were under 100 nM and 3000 to 30000 nM, respectively.
For the compound `N#Cc1nccc(C2CN(C(=O)[C@@H]3CC[C@@H]4CCC[C@H](NC(=O)c5cc6cc(CP(=O)(O)O)ccc6s5)C(=O)N43)C2)n1` [Compound 515, ((2-(((3S,6S,9aS)-3-(3-(2-cyanopyrimidin-4-yl)azetidine-1-carbonyl)-5-oxooctahydro-1H-pyrrolo[1,2-a]azepin-6-yl)carbamoyl)benzo[b]thiophen-5-yl)methyl)phosphonic acid], the IC50 in assay [1] (setting [3]) was in the range of 1000 to 10000 nM; in assay [2] (setting [4]) it was 3000 to 30000 nM.
As for `CN(C)c1ncncc1C1CN(C(=O)[C@@H]2CC[C@@H]3CCC[C@H](NC(=O)c4cc5cc([C@@H](F)P(=O)(O)O)ccc5s4)C(=O)N32)C1` (single isomer, unassigned) [Compound 667], the concentration for half-maximal inhibition (IC50) in assay [1] (setting [3]) is under 100 nM; in assay [2] (setting [4]) it was 3000 to 30000 nM.
As for `Cc1cccnc1C1CN(C(=O)[C@@H]2CC[C@@H]3CCC[C@H](NC(=O)c4cc5cc(C(F)(F)P(=O)(O)O)ccc5s4)C(=O)N32)C1` [Compound 658, (difluoro(2-(((3S,6S,9aS)-3-(3-(3-methylpyridin-2-yl)azetidine-1-carbonyl)-5-oxooctahydro-1H-pyrrolo[1,2-a]azepin-6-yl)carbamoyl)benzo [b]thiophen-5-yl)methyl) phosphonic acid], the IC50 in assay [1] (setting [3]) lay in the range of 100 to 1000 nM; in assay [2] (setting [4]) it was 300 to 3000 nM.
Consider `Cc1cccnc1N1CC[C@@H](NC(=O)[C@@H]2CC[C@@H]3CCCC[C@H](NC(=O)c4cc5cc(C(F)P(=O)(O)O)ccc5s4)C(=O)N32)C1` (stereo partly drawn) [Compound 534, (fluoro(2-(((3S,6S,10aS)-3-(((R)-1-(3-methylpyridin-2-yl)pyrrolidin-3-yl)carbamoyl)-5-oxodecahydropyrrolo[1,2-a]azocin-6-yl)carbamoyl)benzo[b]thiophen-5-yl)methyl)phosphonic acid], for which the IC50 in assay [1] (setting [3]) lay within 100 to 1000 nM; in assay [2] (setting [4]), 3000 to 30000 nM.
With `COc1ccncc1C1CN(C(=O)[C@@H]2CC[C@@H]3C[C@H](C(C)C)CC[C@H](NC(=O)c4cc5cc(C(F)P(=O)(O)O)ccc5s4)C(=O)N32)C1` (stereo partly drawn) [Compound 211, (fluoro(2-(((3S,6S,9R,10aR)-9-isopropyl-3-(3-(4-methoxypyridin-3-yl)azetidine-1-carbonyl)-5-oxodecahydropyrrolo[1,2-a]azocin-6-yl)carbamoyl)benzo[b]thiophen-5-yl)methyl)phosphonic acid], the results for the concentration for half-maximal inhibition (IC50) in assay [1] (setting [3]) and in assay [2] (setting [4]) were under 100 nM and 3000 to 30000 nM, respectively.
For `O=C(N[C@H]1CCCC[C@H]2CC[C@@H](C(=O)N3CCC(c4cc[nH]n4)CC3)N2C1=O)c1cc2cc(C(F)P(=O)(O)O)ccc2s1` (stereo partly drawn) [Compound 589, ((2-(((3S,6S,10aS)-3-(4-(1H-pyrazol-3-yl)piperidine-1-carbonyl)-5-oxodecahydropyrrolo[1,2-a]azocin-6-yl)carbamoyl)benzo[b]thiophen-5-yl)fluoromethyl)phosphonic acid], the IC50 was 1000 to 10000 nM in assay [1] (setting [3]) and 3000 to 30000 nM in assay [2] (setting [4]).
For `Cn1ccc(C2(O)CCN(C(=O)[C@@H]3CC[C@@H]4CCCC[C@H](NC(=O)c5cc6cc(C(F)P(=O)(O)O)ccc6s5)C(=O)N43)C2)cc1=O` (stereo partly drawn) [Compound 914, (fluoro(2-(((3S,6S,10aS)-3-(3-hydroxy-3-(1-methyl-2-oxo-1,2-dihydropyridin-4-yl)pyrrolidine-1-carbonyl)-5-oxodecahydropyrrolo [1,2-a]azocin-6-yl)carbamoyl)benzo [b]thiophen-5-yl)methyl) phosphonic acid] the same measures were 100 to 1000 nM and 300 to 3000 nM.
For `O=C(N[C@H]1CCC[C@H]2CC[C@@H](C(=O)NCc3ccc4[nH]c(=O)[nH]c4c3)N2C1=O)c1cc2cc(C(F)(F)P(=O)(O)O)ccc2s1` [Compound 1117, (difluoro(2-(((3S,6S,9aS)-5-oxo-3-(((2-oxo-2,3-dihydro-1H-benzo[d]imidazol-5-yl)methyl)carbamoyl)octahydro-1H-pyrrolo[1,2-a]azepin-6-yl)carbamoyl)benzo[b]thiophen-5-yl)methyl)phosphonic acid] the same measures were 100 to 1000 nM and 300 to 3000 nM.
Turning to `O=C(NC1CCCC[C@H]2CC[C@@H](C(=O)N3CC(c4ccccc4)CC34CC4)N2C1=O)c1cc2cc(C(F)(F)P(=O)(O)O)ccc2s1` (stereo partly drawn) [Compound 89, (difluoro(2-(((3S,10aS)-5-oxo-3-(6-phenyl-4-azaspiro[2.4]heptane-4-carbonyl)decahydropyrrolo [1,2-a]azocin-6-yl)carbamoyl)benzo[b]thiophen-5-yl)methyl) phosphonic acid], the half-inhibitory concentration (IC50) is 1000 to 10000 nM in assay [1] (setting [5]) and at most 300 nM in assay [2] (setting [6]).
Turning to `CC(C)OC1(c2nncn2C)CN(C(=O)[C@@H]2CC[C@@H]3CCC[C@H](NC(=O)c4cc5cc(C(F)(F)P(=O)(O)O)ccc5s4)C(=O)N32)C1` [Compound 823, (difluoro(2-(((3S,6S,9aS)-3-(3-isopropoxy-3-(4-methyl-4H-1,2,4-triazol-3-yl)azetidine-1-carbonyl)-5-oxooctahydro-1H-pyrrolo[1,2-a]azepin-6-yl)carbamoyl)benzo [b]thiophen-5-yl)methyl) phosphonic acid], the IC50 in assay [1] (setting [3]) fell in the range of 100 to 1000 nM; in assay [2] (setting [4]) it was 3000 to 30000 nM.
The like results for `COC(=O)N1C[C@H](NC(=O)[C@@H]2CC[C@@H]3CCCC[C@H](NC(=O)c4cc5cc(C(F)P(=O)(O)O)ccc5s4)C(=O)N32)[C@@H](F)C1` (stereo partly drawn) [Compound 525, (fluoro(2-(((3S,6S,10aS)-3-(((3S,4S)-4-fluoro-1-(methoxycarbonyl)pyrrolidin-3-yl)carbamoyl)-5-oxodecahydropyrrolo[1,2-a]azocin-6-yl)carbamoyl)benzo[b]thiophen-5-yl)methyl)phosphonic acid] were, in that order, 1000 to 10000 nM and 300 to 3000 nM.
For `O=C(N[C@H]1CCCC[C@H]2CC[C@@H](C(=O)N3CC(c4nc5ccccc5o4)C3)N2C1=O)c1cc2cc(C(F)(F)P(=O)(O)O)ccc2s1` [Compound 497, ((2-(((3S,6S,10aS)-3-(3-(benzo[d]oxazol-2-yl)azetidine-1-carbonyl)-5-oxodecahydropyrrolo[1,2-a]azocin-6-yl)carbamoyl)benzo[b]thiophen-5-yl)difluoromethyl)phosphonic acid] the same measures were 100 to 1000 nM and 300 to 3000 nM.
In the case of `CC(=O)N1C[C@H](NC(=O)[C@@H]2CC[C@@H]3CCC[C@H](NC(=O)c4cc5cc(C(F)(F)P(=O)(O)O)ccc5s4)C(=O)N32)[C@@H](O)C1` [Compound 120, ((2-(((3S,6S,9aS)-3-(((3S,4S)-1-acetyl-4-hydroxypyrrolidin-3-yl)carbamoyl)-5-oxooctahydro-1H-pyrrolo[1,2-a]azepin-6-yl)carbamoyl)benzo[b]thiophen-5-yl)difluoromethyl) phosphonic acid], the IC50 lay in the range of 100 to 1000 nM in assay [1] (setting [5]) and 300 to 3000 nM in assay [2] (setting [6]).

Values taken from US20250215029A1 (Recludix Pharma, Inc., priority 2022, published 2025).
